Reference: article PMC9995496, “A screen for MeCP2-TBL1 interaction inhibitors using a luminescence-based assay” (Scientific Reports, 2023)

Biological target: T1, MeCP2-TBL1 interaction (MeCP2-SmBiT / TBL1-LgBiT) (Mus musculus, UniProt Q9QXE7)
T1 construct: expressed in transfected cells; crude lysate used as a cell-free assay
T1 sequence (Q9QXE7 166-527): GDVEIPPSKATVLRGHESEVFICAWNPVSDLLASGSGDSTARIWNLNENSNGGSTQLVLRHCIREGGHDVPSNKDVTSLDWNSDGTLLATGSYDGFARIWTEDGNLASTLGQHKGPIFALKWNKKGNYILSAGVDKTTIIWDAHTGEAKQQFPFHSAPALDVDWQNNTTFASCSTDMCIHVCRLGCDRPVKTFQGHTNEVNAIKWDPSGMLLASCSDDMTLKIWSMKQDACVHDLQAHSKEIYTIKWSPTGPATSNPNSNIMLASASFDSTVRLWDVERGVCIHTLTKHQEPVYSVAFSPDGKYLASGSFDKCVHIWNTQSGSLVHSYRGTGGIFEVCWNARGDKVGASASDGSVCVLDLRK
Test: MeCP2-TBL1 NanoLuc luciferase complementation assay (cell-free, extracts of transfected HEK293 cells);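 on Inhibition percent: each compound tested at 20 µM final concentration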
Type: binding, human
Procedure, shortened: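 Cell-free split NanoLuc: lysate of HEK293 cells co-expressing the MeCP2 C-terminal half-SmBiT and TBL1 WD domain-LgBiT, mixed 1:1 with furimazine. After 30 min at room temperature, luminescence was plate-median normalized.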

[1] = primary screen of the Asinex library, sheet "Sargen output Asinex library", one well per compound, Batch Ref. 1
[2] = primary screen of Asinex library, single well per compound
[3] = primary screen of the Asinex library, sheet "Sargen output Asinex library", one well per compound

## Cn1c(=O)n(C)c2cc(CCC(=O)N3CCCCC3CCNC(=O)c3ccccc3)ccc21 (centres unmarked) [BDH_33628839]
[1]
  Inhibition percent: -0.76%

## C[C@]12C[C@@H](Cc3ccccc3)N(C(=O)c3ccc(OCCN4CCCCC4)cc3)[C@H]1CCCC(=O)N2 [BDH_33629014]
[2]
  Inhibition percent: -1.82

## Cc1cc(O)cc(=O)n1CCC(=O)N1CCCCC1C1CCN(C(=O)Cc2ccccc2F)CC1 (centres unmarked) [BDH_33629102]
[1]
  Inhibition percent: -1.24%

## CNC(=O)c1sc2nc(C3CCCCN3C(=O)CCCNc3ncccn3)ccc2c1N (centres unmarked) [BDH_33629130]
[1]
  Inhibition percent: -2.07%

## CNc1nc(C2CCCCN2C(=O)CCNc2nc(C)cc(C)n2)nc2c1CCN(C(C)=O)C2 (centres unmarked) [BDH_33629184]
[3]
  Inhibition percent: -0.36%

## CN1C(=O)N(CC(=O)N2CCCCC2CCNC(=O)c2ccccc2)C(=O)C12CCCCC2 (centres unmarked) [BDH_33629465]
[2]
  Inhibition percent: 1.86

## O=C(NCCC1CCCCN1C(=O)CCN1C(=O)COc2ccc(Cl)cc21)c1ccccc1 (centres unmarked) [BDH_33629495]
[1]
  Inhibition percent: -0.39%

## C[C@]12C[C@@H](Cc3ccccc3)N(C(=O)c3ccc(OCCN4CCCC4)cc3)[C@H]1CCCC(=O)N2 [BDH_33629575]
[1]
  Inhibition percent: -1.81%

## C[C@]12C[C@@H](Cc3ccccc3)N(C(=O)C3CCN(Cc4cccnc4)CC3)[C@H]1CCCC(=O)N2 [BDH_33630330]
[1]
  Inhibition percent: -0.000826%

## CC(=O)N1CCCCC[C@@H]2[C@@H]1C[C@@H](Cc1ccccc1)N2C(=O)c1cccc(Cn2cncn2)c1 [BDH_33630828]
[1]
  Inhibition percent: -0.42%

## C[C@]12C[C@@H](Cc3ccccc3)N(C(=O)c3ccc(NCc4cccnc4)cc3)[C@H]1CCCC(=O)N2 [BDH_33630910]
[1]
  Inhibition percent: 7.42%

## Cc1cc2ncn(CCC(=O)N3[C@H](Cc4ccccc4)C[C@]4(C)NC(=O)CCC[C@H]34)c2cc1C [BDH_33631266]
[1]
  Inhibition percent: -1.89%

## C[C@]12C[C@@H](c3cccc(C(F)(F)F)c3)N(C(=O)CCc3nc4ccccc4[nH]3)[C@H]1CCCCC(=O)N2 [BDH_33631539]
[2]
  Inhibition percent: -2.28

## O=C(NCCC1CCCCN1C(=O)CCn1cnc2ccccc21)c1ccccc1 (centres unmarked) [BDH_33631954]
[1]
  Inhibition percent: -1.65%

## CC(C)c1nccn1CCC(=O)N1[C@H](Cc2ccccc2)C[C@]2(C)NC(=O)CCC[C@H]12 [BDH_33632337]
[3]
  Inhibition percent: 1.15%

## COc1cc2c(cc1[C@H]1C[C@@H](NC(C)=O)CC3(CCCCC3)O1)OCCCO2 [BDH_33665894]
[1]
  Inhibition percent: 2.60%

## COc1cccc([C@H]2C[C@@](C)(NC(=O)C(C)C)[C@@H]3CC[C@@H](C)C[C@H]3O2)c1OCCN(C)C [BDH_33687810]
[3]
  Inhibition percent: -1.87%

## CC(C)(O)[C@@H]1CC[C@](C)([C@H]2CC3(CCN(C(=O)c4ccc(-c5ccc(S(C)(=O)=O)cc5)cc4)CC3)CO2)O1 [BDH_33696510]
[1]
  Inhibition percent: 0.0118%

## COc1cccc(CN2CCC3(C/C=C/COc4ccccc4C(=O)NCCNC3=O)CC2)c1F [BDH_33701964]
[1]
  Inhibition percent: -0.89%

## O=C1NCCNC(=O)C2(C/C=C/COc3ccccc31)CCN(C(=O)CCc1cccs1)CC2 [BDH_33701979]
[1]
  Inhibition percent: 4.94%

## O=C1CNC(=O)C2(C/C=C/C[C@H]3COCC[C@H]3N1)CCN(c1ncccn1)CC2 [BDH_33727647]
[2]
  Inhibition percent: -1.79

## O=C1CNC(=O)C2(C/C=C/C[C@H]3COCC[C@H]3N1)CCN(C(=O)/C=C/c1ccccc1)CC2 [BDH_33728358]
[3]
  Inhibition percent: -2.28%

## O=C1CNC(=O)C2(C/C=C/C[C@H]3COCC[C@@H]3N1)CCN(C(=O)COc1ccccc1)CC2 [BDH_33728395]
[3]
  Inhibition percent: -3.47%

## Cc1ncc(C(=O)N2CCC[C@@H]3[C@H]2C/C=C/Cc2ccccc2OCC(=O)N3C)c(C)n1 [BDH_33728424]
[3]
  Inhibition percent: -2.62%

## Cc1nc(C(=O)N2CCCC3(C/C=C/COc4ccccc4C(=O)NCCNC3=O)C2)co1 (centres unmarked) [BDH_33731677]
[1]
  Inhibition percent: -0.08%

## CC(=O)N1CCC2(C/C=C/C[C@H]3CN(C(=O)Cc4cccc(F)c4)CC[C@H]3NC(=O)CNC2=O)CC1 [BDH_33732909]
[3]
  Inhibition percent: -2.58%

## Cc1nn(C)cc1CCC(=O)N1CCC[C@@H]2NC(=O)c3ccccc3OCCCCC[C@@H]21 [BDH_33734258]
[2]
  Inhibition percent: -1.51

## O=C1COc2ccccc2CCCC[C@@H]2CN(C(=O)CCCn3cccn3)CC[C@H]2N1 [BDH_33762630]
[3]
  Inhibition percent: 0.76%

## CC(C)C[C@H](NC(=O)OCc1ccccc1)C(=O)N1CCC2(CC1)CO[C@@H]([C@@]1(C)CC[C@H](O)C(C)(C)O1)C2 [BDH_33767587]
[3]
  Inhibition percent: -2.43%

## Cc1cnn(CC(=O)N2CCC3(C/C=C/CCOc4ccccc4C(=O)NCCCNC3=O)CC2)c1 [BDH_33775476]
[1]
  Inhibition percent: 1.29%

## Cn1nccc1CN[C@@H]1C[C@@H](Oc2ccccc2)[C@H](O)[C@H]1N1CCN(c2ccccc2)CC1 [BDH_33787192]
[2]
  Inhibition percent: -0.36

## C[C@@]12C[C@H](c3ccccc3)N(C(=O)CCc3c[nH]c4ccccc34)[C@@H]1CCC[C@@H](O)[C@H]2O [BDH_33903568]
[1]
  Inhibition percent: 3.00%

## CC(C)(C)OC(=O)N1[C@@H](CNC(=O)CCc2c[nH]c3ccccc23)C[C@@]2(C)[C@@H](O)CCCC[C@@H]12 [BDH_33903570]
[1]
  Inhibition percent: 3.52%

## CN(C)c1ccccc1C(=O)N(C)[C@H]1CC[C@@]2(CCO)C[C@H](c3ccccc3)C[C@](C)(O2)[C@@H]1O [BDH_33903744]
[2]
  Inhibition percent: 1.99

## C[C@@]12C[C@H](c3ccccc3)N(C(=O)CCCn3cccn3)[C@@H]1CCC[C@@H](O)[C@@H]2O [BDH_33903800]
[2]
  Inhibition percent: 0.83

## CC(C)(C)OC(=O)NCCC(=O)N(Cc1ccccc1)C[C@@H]1C[C@@H](n2ccc(=O)[nH]c2=O)[C@@H](O)[C@@H]1O [BDH_33952010]
[3]
  Inhibition percent: -1.46%

## CC(C)=CCC[C@]1(C)Oc2c(OCCOCCO)cccc2[C@H]2O[C@H]3CCN(C(=O)OC(C)(C)C)C[C@@H]3C[C@@H]21 [BDH_33957239]
[1]
  Inhibition percent: 4.83%

## CC(C)=CCC[C@]1(C)Oc2cc(OCC(N)=O)ccc2[C@H]2OC[C@@]3(CCCN(C(=O)OC(C)(C)C)C3)C[C@@H]21 [BDH_33958782]
[1]
  Inhibition percent: 7.79%

## CC(C)=CCC[C@]1(C)Oc2cc(OCC(=O)O)ccc2[C@H]2OCC3(CCN(C(=O)OC(C)(C)C)CC3)C[C@@H]21 [BDH_33958802]
[3]
  Inhibition percent: 4.22%

## CC(C)(C)OC(=O)N(Cc1ccccc1)C[C@@H]1C[C@H](O)[C@H](O)[C@H]1n1cnc2c(N)ncnc21 [BDH_34018090]
[3]
  Inhibition percent: -1.62%

## O=C(NCCc1ccccc1)[C@@H]1[C@H](O)[C@@H](c2ccc(F)cc2)CN1C(=O)Cc1c[nH]c2ccccc12 [BDH_34023215]
[2]
  Inhibition percent: 2.61

## CCCCC[C@]1(O)CCN(S(=O)(=O)c2ccccc2)C[C@@H]1Oc1cccc(F)c1 [BDH_34032183]
[1]
  Inhibition percent: 9.13%

## CC(C)C[C@H]1CN(C(=O)CCn2c(=O)oc3cc(Cl)ccc32)CC[C@H]1Nc1cccc(F)c1 [BDH_34035644]
[1]
  Inhibition percent: 1.76%

## COCCC(=O)N[C@@]1(C)C[C@@H](c2ccc(F)cc2)O[C@@H](c2ccc(N3CCCC3=O)cc2)C1 [BDH_34036118]
[2]
  Inhibition percent: 3.23

## COCCC(=O)N[C@]1(C)C[C@@H](c2ccc(Cl)cc2)O[C@@H](c2cc(Br)ccc2O)C1 [BDH_34036884]
[2]
  Inhibition percent: 5.22

## CN(C)CCOc1ccc(C(=O)N(C)CC2(O)CCCN(c3ccnc4ccncc34)C2)cc1 (centres unmarked) [BDH_34040371]
[2]
  Inhibition percent: -4.15

## CCc1nnsc1C(=O)NC[C@]1(c2ccccc2)CC[C@@H](O)[C@H](N2CCOCC2)CC1 [BDH_34124703]
[3]
  Inhibition percent: 0.50%

## COc1cccc(C2CN(Cc3ccccc3)C(=O)C23CCN(Cc2cccc(C(=O)O)c2)CC3)c1 (centres unmarked) [BDH_34129947]
[2]
  Inhibition percent: -0.66

## COc1cccc(C2CN(Cc3ccccc3)C(=O)C23CCN(Cc2ccc(C(=O)O)cc2)CC3)c1 (centres unmarked) [BDH_34130105]
[2]
  Inhibition percent: 0.45

## COc1cccc(C2CN(Cc3ccccc3)C(=O)C23CCN(Cc2ccccc2C(=O)O)CC3)c1 (centres unmarked) [BDH_34130263]
[2]
  Inhibition percent: 5.00

## CC1(C)Oc2ccccc2[C@@H]2O[C@@H]3CCN(C(=O)c4cccc(Cn5ccnc5)c4)C[C@]3(CO)C[C@H]21 [BDH_34133896]
[1]
  Inhibition percent: 6.91%

## CC(=O)N1CCC(C(=O)N[C@@H]2C[C@@H](Oc3cccc(F)c3)[C@H](O)[C@H]2N(C)Cc2ccccc2)CC1 [BDI_34055064]
[3]
  Inhibition percent: 0.18%

## COc1ccc(CN(C)[C@@H]2[C@@H](O)[C@H](Oc3cccc(F)c3)C[C@H]2NC(=O)CCC(N)=O)cc1 [BDI_34058033]
[1]
  Inhibition percent: -0.09%

## CN(Cc1ccccc1)[C@@H]1[C@@H](O)[C@H](Oc2cccc(C(F)(F)F)c2)C[C@H]1NC(=O)c1cocn1 [BDI_34061115]
[1]
  Inhibition percent: 4.93%

## CN(C)Cc1cccc(N/C(=C2\C(=O)Nc3cc(C(=O)N(C)C)ccc32)c2ccccc2)c1 [BIX02189, reference compound]
20 µM, n = 7, t-test
  inhibition in MeCP2-TBL1 assay compared with control PKA-based assay, individual validation: did not have a statistically different effect
0.3–60 μM, PKA-based assay run in parallel
  separation between MeCP2-TBL1 inhibition and inhibition of the PKA control in dose response: only modest selectivity
ApexBio library screen, 20 µM, threshold SSMD* ≥ 3, read-out: inhibition in MeCP2-TBL1 assay after adjusting for activity in the PRKACA-PRKAR2A assay
  inhibition at 20 µM: ≥ 35%
Dose response 0.3–60 μM, triplicate, 30 min, luminescence normalized to DMSO, read-out: IC50, inhibition of MeCP2-TBL1 luminescence signal
  IC50: 28 µM

## O=C1C(Cl)=C(N2CCOCC2)C(=O)N1c1ccc(Cl)c(Cl)c1 [RI-1, reference compound]
ApexBio FDA-approved Drug Library screen, 20 µM
  Inh (MeCP2-TBL1): 13.6055
